From patent US20260159520A1, “HETEROBIFUNCTIONAL COMPOUNDS AND METHODS OF TREATING DISEASE” (Halda Therapeutics OpCo, Inc., priority 2022, published 2026)

Each compound was assayed against T1, androgen receptor (Homo sapiens, UniProt P10275) (assay: Binding affinity to androgen receptor ([3H]methyltrienolone radioligand, cell cytosol)). Conditions: Table 6.
T1 construct: endogenous in cells; host or cells: unnamed cells (cytosol fraction)
T1 sequence (P10275 1-920): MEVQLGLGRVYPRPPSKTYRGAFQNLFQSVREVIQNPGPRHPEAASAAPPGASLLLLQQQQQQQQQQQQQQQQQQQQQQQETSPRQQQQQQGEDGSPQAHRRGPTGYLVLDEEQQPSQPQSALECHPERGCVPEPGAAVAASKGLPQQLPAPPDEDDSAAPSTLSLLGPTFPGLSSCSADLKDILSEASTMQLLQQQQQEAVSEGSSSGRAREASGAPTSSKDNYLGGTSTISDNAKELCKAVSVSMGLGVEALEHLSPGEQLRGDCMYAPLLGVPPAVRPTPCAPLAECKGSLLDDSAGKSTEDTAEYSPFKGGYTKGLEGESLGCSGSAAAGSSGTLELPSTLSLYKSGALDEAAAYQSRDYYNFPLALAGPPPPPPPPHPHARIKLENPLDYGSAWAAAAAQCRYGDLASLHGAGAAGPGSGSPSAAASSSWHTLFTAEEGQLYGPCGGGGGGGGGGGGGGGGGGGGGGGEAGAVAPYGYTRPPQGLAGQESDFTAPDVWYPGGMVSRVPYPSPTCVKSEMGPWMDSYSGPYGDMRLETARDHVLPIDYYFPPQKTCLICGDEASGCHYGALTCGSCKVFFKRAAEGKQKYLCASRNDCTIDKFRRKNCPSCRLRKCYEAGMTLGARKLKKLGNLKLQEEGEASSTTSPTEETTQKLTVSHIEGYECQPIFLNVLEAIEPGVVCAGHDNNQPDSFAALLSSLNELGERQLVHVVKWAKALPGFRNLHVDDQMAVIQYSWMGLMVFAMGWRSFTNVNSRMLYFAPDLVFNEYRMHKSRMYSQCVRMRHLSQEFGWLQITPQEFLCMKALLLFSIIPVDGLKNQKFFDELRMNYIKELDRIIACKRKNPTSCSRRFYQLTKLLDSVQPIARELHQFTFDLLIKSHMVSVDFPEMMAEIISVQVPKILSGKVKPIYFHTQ
Protocol: Fractions of cell cytosol ([…]) were incubated for 24 hr at 4° C. with 1 nM [^3H]methyltrienolone in the absence or presence of the test compound in a buffer containing 25 mM Hepes-Tris (pH 7.4), 1 mM EDTA, 10 mM Na2MoO4, 2 mM DTT, 5 μM triamcinolone acetonide, and 10% glycerol. Nonspecific binding was determined in the presence of 1 μM testosterone. Following incubation, the samples were filtered rapidly under vacuum through glass fiber filters (GF/B, Packard) presoaked with 0.3% PEI and rinsed several times with ice-cold 50 mM Tris-HCl using a 96-sample cell harvester (Unifilter, Packard). The filters were dried then counted for radioactivity in a scintillation counter (Topcount, Packard) using a scintillation cocktail (Microscint 0, Packard). The results are expressed as a percent inhibition of the control radioligand specific binding. The standard reference compound is testosterone, which is tested in each experiment at several concentrations to obtain a competition curve from which its IC50 is calculated.

Row | Compound | Kd [nM]
1 | CC1(C)[C@H](NC(=O)c2cnc(N3CCC(OCCNS(=O)(=O)c4ccc(Nc5ncc(Br)c(Nc6cccc(F)c6C(N)=O)n5)cc4)CC3)nc2)C(C)(C)[C@H]1Oc1ccc(C#N)c(Cl)c1 [Compound I-13, 2-(4-(2-((4-((5-bromo-4-((2-carbamoyl-3-fluorophenyl)amino)pyrimidin-2-yl)amino)phenyl)sulfonamido)ethoxy)piperidin-1-yl)-N-((1 r,3r)-3-(3-chloro-4-cyanophenoxy)-2,2,4,4-tetramethylcyclobutyl)pyrimidine-5-carboxamide] | < 50
2 | CCc1cnn2c(NCc3ccc(OCCOCCOCCOC4CCN(c5ccc(C(=O)N[C@H]6C(C)(C)[C@H](Oc7ccc(C#N)c(Cl)c7)C6(C)C)nn5)CC4)nc3)cc(N3CCCC[C@H]3CCO)nc12 [Compound I-44, N-((1r,3r)-3-(3-chloro-4-cyanophenoxy)-2,2,4,4-tetramethylcyclobutyl)-6-(4-(2-(2-(2-((5-(((3-ethyl-5-((S)-2-(2-hydroxyethyl)piperidin-1-yl)pyrazolo[1,5-a]pyrimidin-7-yl)amino)methyl)pyridin-2-yl)oxy)ethoxy)ethoxy)ethoxy)piperidin-1-yl)pyridazine-3-carboxamide] | 50 to 500
3 | CCc1cnn2c(NCc3ccc(OCCCN4CCN(CC5CCN(c6ccc(C(=O)N[C@H]7C(C)(C)[C@H](Oc8ccc(C#N)c(Cl)c8)C7(C)C)cc6)CC5)CC4)nc3)cc(N3CCCC[C@@H]3CCO)nc12 [II-1, N-((1r,3r)-3-(3-chloro-4-cyanophenoxy)-2,2,4,4-tetramethylcyclobutyl)-4-(4-((4-(3-((5-(((3-ethyl-5-((R)-2-(2-hydroxyethyl)piperidin-1-yl)pyrazolo[1,5-a]pyrimidin-7-yl)amino)methyl)pyridin-2-yl)oxy)propyl)piperazin-1-yl)methyl)piperidin-1-yl)benzamide] | < 50
4 | CCc1cnn2c(NCc3ccc(OCCCN4CCN(CC5CCN(c6ccc(C(=O)N[C@H]7C(C)(C)[C@H](Oc8ccc(C#N)c(Cl)c8)C7(C)C)cn6)CC5)CC4)nc3)cc(N3CCCC[C@@H]3CCO)nc12 [Compound I-55, N-((1r,3r)-3-(3-chloro-4-cyanophenoxy)-2,2,4,4-tetramethylcyclobutyl)-6-(4-((4-(3-((5-(((3-ethyl-5-((R)-2-(2-hydroxyethyl)piperidin-1-yl)pyrazolo[1,5-a]pyrimidin-7-yl)amino)methyl)pyridin-2-yl)oxy)propyl)piperazin-1-yl)methyl)piperidin-1-yl)nicotinamide] | < 50
5 | CCc1cnn2c(NCc3ccc(OCCOCCOCCOCCOCCOCCOCCN(C)c4ncc(C(=O)N[C@H]5C(C)(C)[C@H](Oc6ccc(C#N)c(Cl)c6)C5(C)C)cn4)nc3)cc(N3CCCC[C@H]3CCO)nc12 [Compound I-5] | < 50
6 | CCc1cnn2c(NCc3ccc(OCCCN4CCN(C5CN(c6ncc(C(=O)N[C@H]7C(C)(C)[C@H](Oc8ccc(C#N)c(Cl)c8)C7(C)C)cn6)C5)CC4)nc3)cc(N3CCCC[C@H]3CCO)nc12 [Compound I-60] | < 50
7 | CCc1cnn2c(NCc3ccc(N4CCC(CN5CCC6CN(c7ncc(C(=O)N[C@H]8C(C)(C)[C@H](Oc9ccc(C#N)c(Cl)c9)C8(C)C)cn7)CCC6C5)CC4)nc3)cc(N3CCCC[C@H]3CCO)nc12 (stereo partly drawn) [Compound I-71] | < 50
8 | CCc1cnn2c(NCc3ccc(N4CC(OCCN5CC6CN(c7ncc(C(=O)N[C@H]8C(C)(C)[C@H](Oc9ccc(C#N)c(Cl)c9)C8(C)C)cn7)CC6C5)C4)nc3)cc(N3CCCC[C@H]3CCO)nc12 (stereo partly drawn) [Compound I-72] | < 50

Second part, the compound after the results:

Row | Kd [nM] | Compound
9 | < 50 | CCc1cnn2c(NCc3ccc(OCCCN4CCC(C5CN(c6ncc(C(=O)N[C@H]7C(C)(C)[C@H](Oc8ccc(C#N)c(Cl)c8)C7(C)C)cn6)C5)CC4)nc3)cc(N3CCCC[C@H]3CCO)nc12 [Compound I-61]
10 | < 50 | CCc1cnn2c(NCc3ccc(=O)n(CCOCCOCCOCCOCCOCCOCCN(C)c4ncc(C(=O)N[C@H]5C(C)(C)[C@H](Oc6ccc(C#N)c(Cl)c6)C5(C)C)cn4)c3)cc(N3CCCC[C@H]3CCO)nc12 [Compound I-4, N-((1r,3r)-3-(3-chloro-4-cyanophenoxy)-2,2,4,4-tetramethylcyclobutyl)-2-((20-(5-(((3-ethyl-5-((S)-2-(2-hydroxyethyl)piperidin-1-yl)pyrazolo[1,5-a]pyrimidin-7-yl)amino)methyl)-2-oxopyridin-1(2H)-yl)-3,6,9,12,15,18-hexaoxaicosyl)(methyl)amino)pyrimidine-5-carboxamide]
11 | < 50 | CCc1cnn2c(NCc3ccc(OCCOCCOCCOCCOCCOC4CCN(c5ncc(C(=O)N[C@H]6C(C)(C)[C@H](Oc7ccc(C#N)c(Cl)c7)C6(C)C)cn5)CC4)nc3)cc(N3CCCC[C@H]3CCO)nc12 [Compound I-9]
12 | < 50 | CCc1cnn2c(NCc3ccc(OCCOCC4CCN(CC5CCN(c6ncc(C(=O)N[C@H]7C(C)(C)[C@H](Oc8ccc(C#N)c(Cl)c8)C7(C)C)cn6)CC5)CC4)nc3)cc(N3CCCC[C@H]3CCO)nc12 [Compound I-45]
13 | < 50 | CCc1cnn2c(NCc3ccc(OCCN(C)c4ncc(C(=O)N[C@H]5C(C)(C)[C@H](Oc6ccc(C#N)c(Cl)c6)C5(C)C)cn4)nc3)cc(N3CCCC[C@H]3CCO)nc12 [Compound I-1]
14 | < 50 | CCc1cnn2c(NCc3ccc(OCCCCOCCOC4CCN(c5ncc(C(=O)N[C@H]6C(C)(C)[C@H](Oc7ccc(C#N)c(Cl)c7)C6(C)C)cn5)CC4)nc3)cc(N3CCCC[C@H]3CCO)nc12 [Compound I-34]
15 | < 50 | CCc1cnn2c(NCc3ccc(OCCN4CCN(CC5CCN(c6ncc(C(=O)N[C@H]7C(C)(C)[C@H](Oc8ccc(C#N)c(Cl)c8)C7(C)C)cn6)CC5)CC4)nc3)cc(-c3ccccc3)nc12 [Compound I-47, N-((1r,3r)-3-(3-chloro-4-cyanophenoxy)-2,2,4,4-tetramethylcyclobutyl)-2-(4-((4-(2-((5-(((3-ethyl-5-phenylpyrazolo[1,5-a]pyrimidin-7-yl)amino)methyl)pyridin-2-yl)oxy)ethyl)piperazin-1-yl)methyl)piperidin-1-yl)pyrimidine-5-carboxamide]
16 | < 50 | CCc1cnn2c(NCc3ccc(OCCOC4CCN(c5ncc(C(=O)N[C@H]6C(C)(C)[C@H](Oc7ccc(C#N)c(Cl)c7)C6(C)C)cn5)CC4)nc3)cc(N3CCCC[C@H]3CCO)nc12 [Compound I-7, N-((1r,3r)-3-(3-chloro-4-cyanophenoxy)-2,2,4,4-tetramethylcyclobutyl)-2-(4-(2-((5-(((3-ethyl-5-((S)-2-(2-hydroxyethyl)piperidin-1-yl)pyrazolo[1,5-a]pyrimidin-7-yl)amino)methyl)pyridin-2-yl)oxy)ethoxy)piperidin-1-yl)pyrimidine-5-carboxamide]
17 | < 50 | CCc1cnn2c(NCc3ccc(OCCCCN4CCN(CC5CCN(c6ncc(C(=O)N[C@H]7C(C)(C)[C@H](Oc8ccc(C#N)c(Cl)c8)C7(C)C)cn6)CC5)CC4)nc3)cc(N3CCCC[C@H]3CCO)nc12 [Compound I-43]

Each compound was assayed against T2, CDK1 (Homo sapiens, UniProt P06493) (assay: KdELECT binding assay, CDK1). Conditions: CDK1, Table 9.
T2 construct: made in house; host or cells: E. coli BL21-derived host (T7 phage) or HEK-293 ('BEK-293' [sic])
Protocol: Compounds were tested using a KdELECT. Kinase-tagged T7 phage strains were prepared in an E. coli host derived from the BL21 strain. E. coli were grown to log-phase and infected with T7 phage and incubated with shaking at 32° C. until lysis. The lysates were centrifuged and filtered to remove cell debris. The remaining kinases were produced in BEK-293 cells and subsequently tagged with DNA for qPCR detection. Streptavidin-coated magnetic beads were treated with biotinylated small molecule ligands for 30 minutes at room temperature to generate affinity resins for kinase assays. The liganded beads were blocked with excess biotin and washed with blocking buffer (SeaBlock (Pierce), 1% BSA, 0.05% Tween 20, 1 mM DTT) to remove unbound ligand and to reduce non-specific binding. Binding reactions were assembled by combining kinases, liganded affinity beads, and test compounds in 1× binding buffer (20% SeaBlock, 0.17×PBS, 0.05% Tween 20, 6 mM DTT). Test compounds were prepared as 111× stocks in 100% DMSO. Kd values were determined using an 11-point 3-fold compound dilution series with three DMSO control points. All compounds for Kd measurements are distributed by acoustic transfer (non-contact dispensing) in 100% DMSO. The compounds were then diluted directly into the assays such that the final concentration of DMSO was 0.9%. All reactions performed in polypropylene 384-well plate. Each was a final volume of 0.02 mL. The assay plates were incubated at room temperature with shaking for 1 hour and the affinity beads were washed with wash buffer (lx PBS, 0.05% Tween 20). The beads were then re-suspended in elution buffer (lx PBS, 0.05% Tween 20, 0.5 μM nonbiotinylated affinity ligand) and incubated at room temperature with shaking for 30 minutes. The kinase concentration in the eluates was measured by qPCR.

T2 sequence (P06493 whole entry): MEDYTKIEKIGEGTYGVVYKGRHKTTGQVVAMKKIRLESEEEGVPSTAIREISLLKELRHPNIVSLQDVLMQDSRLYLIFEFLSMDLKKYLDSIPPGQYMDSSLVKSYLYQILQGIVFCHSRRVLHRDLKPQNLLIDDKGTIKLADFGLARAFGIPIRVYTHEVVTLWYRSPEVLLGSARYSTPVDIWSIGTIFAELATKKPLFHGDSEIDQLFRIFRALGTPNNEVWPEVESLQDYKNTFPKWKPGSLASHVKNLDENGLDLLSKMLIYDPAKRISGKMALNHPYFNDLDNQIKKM

Row | Kd [nM] | Compound
18 | > 2500 | CCc1cnn2c(NCc3ccc(OCCN4CCN(CC5CCN(c6ncc(C(=O)N[C@H]7C(C)(C)[C@H](Oc8ccc(C#N)c(Cl)c8)C7(C)C)cn6)CC5)CC4)nc3)cc(N3CCCC[C@H]3CCO)nc12 [Compound I-41]
